From patent publication US8765749B2, “1,6-disubstituted indole compounds as protein kinase inhibitors” (Korea Institute of Science and Technology, priority 2009, dated 2014)

Columns and labels:
A375P cells = assay: Inhibition activity against proliferation of A375P melanoma cells (MTT assay); settings: Homo sapiens, read-out: Inhibition activity against proliferation of A375P cells (GI50, μM)
SK-MEL28 cells = assay: Inhibition activity against proliferation of SK-MEL28 melanoma cells (MTT assay); settings: Homo sapiens, SK-MEL-28, read-out: Inhibition activity against proliferation of SK-MEL28 cells (GI50, μM)

| Compound | GI50 (A375P cells) [µM] | GI50 (SK-MEL28 cells) [µM] |
| --- | --- | --- |
| Cc1cn(-c2cc(C(=O)Nc3cccc(-c4ccc5ccn(-c6cc(N)ncn6)c5c4)c3)cc(C(F)(F)F)c2)cn1 [Example 8, N-(3-(1-(6-aminopyrimidin-4-yl)-1H-indol-6-yl)phenyl)-3-(4-methyl-1H-imidazol-1-yl)-5-(trifluoromethyl)benzamide] | < 10 | < 10 |
| O=C(Nc1cccc(-c2ccc3ccn(-c4cc(NC(=O)C5CC5)ncn4)c3c2)c1)Nc1ccccc1F [Example 27, N-(6-(6-(3-(3-(2-fluorophenyl)ureido)phenyl)-1H-indol-1-yl)pyrimidin-4-yl)cyclopropanecarboxamide] | < 10 |  |
| Nc1cc(-n2ccc3ccc(-c4cccc(NC(=O)NC5CCCCC5)c4)cc32)ncn1 [Example 5, 1-(3-(1-(6-aminopyrimidin-4-yl)-1H-indol-6-yl)phenyl)-3-cyclohexylurea] | < 10 | < 10 |
| Nc1cc(-n2ccc3ccc(-c4cccc(NC(=O)c5cnn(-c6ccccc6)c5C(F)(F)F)c4)cc32)ncn1 [Example 17, N-(3-(1-(6-aminopyrimidin-4-yl)-1H-indol-6-yl)phenyl)-1-phenyl-5-(trifluoromethyl)-1H-pyrazol-4-carboxamide] | < 10 |  |
| COc1ccccc1NC(=O)Nc1cccc(-c2ccc3ccn(-c4ccnc(N)n4)c3c2)c1 [Example 25, 1-(3-(1-(2-aminopyrimidin-4-yl)-1H-indol-6-yl)phenyl)-3-(2-methoxyphenyl)urea] | < 10 | < 10 |
| Nc1cc(-n2ccc3ccc(-c4cccc(NC(=O)c5cscn5)c4)cc32)ncn1 [Example 15, N-(3-(1-(6-aminopyrimidin-4-yl)-1H-indol-6-yl)phenyl)thiazol-4-carboxamide] | < 10 |  |
| COc1ccc(-c2ccc(C(=O)Nc3cccc(-c4ccc5ccn(-c6cc(N)ncn6)c5c4)c3)o2)cc1 [Example 10, N-(3-(1-(6-aminopyrimidin-4-yl)-1H-indol-6-yl)phenyl)-5-(4-methoxyphenyl)furan-2-carboxamide] | < 10 |  |
| Nc1cc(-n2ccc3ccc(-c4cccc(NC(=O)c5csc(-c6ccncc6)n5)c4)cc32)ncn1 [Example 16, N-(3-(1-(6-aminopyrimidin-4-yl)-1H-indol-6-yl)phenyl)-2-(pyridin-4-yl)thiazol-4-carboxamide] | < 10 |  |
| O=C(Nc1cccc(-c2ccc3ccn(-c4cc(NC(=O)C5CC5)ncn4)c3c2)c1)Nc1ccc(Cl)c(Cl)c1 [Example 28, N-(6-(6-(3-(3-(3,4-dichlorophenyl)ureido)phenyl)-1H-indol-1-yl)pyrimidin-4-yl)cyclopropanecarboxamide] | < 10 |  |
| O=C(Nc1cccc(-c2ccc3ccn(-c4cc(NC(=O)C5CC5)ncn4)c3c2)c1)NC1CCCCC1 [Example 29, N-(6-(6-(3-(3-cyclohexylureido)phenyl)-1H-indol-1-yl)pyrimidin-4-yl)cyclopropanecarboxamide] | < 10 |  |
| Cc1cc(C(=O)Nc2cccc(-c3ccc4ccn(-c5cc(N)ncn5)c4c3)c2)no1 [Example 13, N-(3-(1-(6-aminopyrimidin-4-yl)-1H-indol-6-yl)phenyl)-5-methylisoxazol-3-carboxamide] | < 10 | < 10 |
| Nc1cc(-n2ccc3ccc(-c4cccc(NC(=O)c5ccc(Cl)c(C(F)(F)F)c5)c4)cc32)ncn1 [Example 6, N-(3-(1-(6-aminopyrimidin-4-yl)-1H-indol-6-yl)phenyl)-4-chloro-3-(trifluoromethyl)benzamide] | < 10 | < 10 |
| O=C(Nc1cccc(-c2ccc3ccn(-c4cc(NC(=O)C5CC5)ncn4)c3c2)c1)c1cc(N2CCOCC2)cc(C(F)(F)F)c1 [Example 31, N-(3-(1-(6-(cyclopropanecarboxamido)pyrimidin-4-yl)-1H-indol-6-yl)phenyl)-3-morpholino-5-(trifluoromethyl)benzamide] | < 10 |  |
| O=C(Nc1cccc(-c2ccc3ccn(-c4cc(NC(=O)C5CC5)ncn4)c3c2)c1)c1ccc(Cl)c(C(F)(F)F)c1 [Example 30, 4-chloro-N-(3-(1-(6-(cyclopropanecarboxamido)pyrimidin-4-yl)-1H-indol-6-yl)phenyl)-3-(trifluoromethyl)benzamide] | < 10 |  |
| Nc1cc(-n2ccc3ccc(-c4cccc(NC(=O)c5cc(-c6ccc(Cl)cc6)on5)c4)cc32)ncn1 [Example 14, N-(3-(1-(6-aminopyrimidin-4-yl)-1H-indol-6-yl)phenyl)-5-(4-chlorophenyl)isoxazol-3-carboxamide] | < 10 |  |
| COc1ccccc1NC(=O)Nc1ccc(C)c(-c2ccc3ccn(-c4cc(NC(=O)C5CC5)ncn4)c3c2)c1 [Example 35, N-(6-(6-(5-(3-(2-methoxyphenyl)ureido)-2-methylphenyl)-1H-indol-1-yl)pyrimidin-4-yl)cyclopropanecarboxamide] | < 10 |  |
| CC(C)(C#N)c1cccc(C(=O)Nc2cccc(-c3ccc4ccn(-c5cc(N)ncn5)c4c3)c2)c1 [Example 9, N-(3-(1-(6-aminopyrimidin-4-yl)-1H-indol-6-yl)phenyl)-3-(2-cyanopropan-2-yl)benzamide] | < 10 | < 10 |
| CC(C)(C#N)c1cccc(C(=O)Nc2cccc(-c3ccc4ccn(-c5cc(NC(=O)C6CC6)ncn5)c4c3)c2)c1 [Example 33, 3-(2-cyanopropan-2-yl)-N-(3-(1-(6-(cyclopropanecarboxamido)pyrimidin-4-yl)-1H-indol-6-yl)phenyl)benzamide] | < 10 |  |
| Nc1cc(-n2ccc3ccc(-c4cccc(NC(=O)Nc5ccccc5F)c4)cc32)ncn1 [Example 3, 1-(3-(1-(6-aminopyrimidin-4-yl)-1H-indol-6-yl)phenyl)-3-(2-fluorophenyl)urea] | < 10 |  |
| Nc1cc(-n2ccc3ccc(-c4cccc(NC(=O)c5ccc(-c6cc(C(F)(F)F)ccc6Cl)o5)c4)cc32)ncn1 [Example 11] | < 10 |  |
| Cc1ccc(S(=O)(=O)Nc2cccc(-c3ccc4ccn(-c5cc(N)ncn5)c4c3)c2)cc1 [Example 20, N-(3-(1-(6-aminopyrimidin-4-yl)-1H-indol-6-yl)phenyl)-4-methylbenzenesulfonamide] | < 10 |  |
| O=C(Nc1cccc(-c2ccc3ccn(-c4ncnc5[nH]ccc45)c3c2)c1)c1ccc(Cl)c(C(F)(F)F)c1 [Example 37, N-(3-(1-(7H-pyrrolo[2,3-d]pyrimidin-4-yl)-1H-indol-6-yl)phenyl)-4-chloro-3-(trifluoromethyl)benzamide] | < 10 |  |

Now from value to molecule:

| GI50 (A375P cells) [µM] | GI50 (SK-MEL28 cells) [µM] | Compound |
| --- | --- | --- |
| < 10 | < 10 | Nc1cc(-n2ccc3ccc(-c4cccc(NC(=O)c5cc(N6CCOCC6)cc(C(F)(F)F)c5)c4)cc32)ncn1 [Example 7, N-(3-(1-(6-aminopyrimidin-4-yl)-1H-indol-6-yl)phenyl)-3-morpholino-5-(trifluoromethyl)benzamide] |
| < 10 |  | CN1CCC(Oc2ccc(C(=O)Nc3cccc(-c4ccc5ccn(-c6cc(N)ncn6)c5c4)c3)cc2C(F)(F)F)CC1 [Example 19, N-(3-(1-(6-aminopyrimidin-4-yl)-1H-indol-6-yl)phenyl)-4-(1-methylpiperidin-4-yloxy)-3-(trifluoromethyl)benzamide] |
| < 10 | < 10 | Nc1cc(-n2ccc3ccc(-c4cccc(NC(=O)Nc5ccc(C(F)(F)F)c(Cl)c5)c4)cc32)ncn1 [Example 2, 1-(3-(1-(6-aminopyrimidin-4-yl)-1H-indol-6-yl)phenyl)-3-(3-chloro-4-(trifluoromethyl)phenyl)urea] |
| < 10 | < 10 | COc1ccccc1NC(=O)Nc1cccc(-c2ccc3ccn(-c4cc(NCCN5CCOCC5)ncn4)c3c2)c1 [Example 24, 1-(2-methoxyphenyl)-3-(3-(1-(6-(2-morpholinoethylamino)pyrimidin-4-yl)-1H-indol-6-yl)phenyl)urea] |
| < 10 |  | Cc1cn(-c2cc(C(=O)Nc3cccc(-c4ccc5ccn(-c6cc(NC(=O)C7CC7)ncn6)c5c4)c3)cc(C(F)(F)F)c2)cn1 [Example 32, N-(3-(1-(6-(cyclopropanecarboxamido)pyrimidin-4-yl)-1H-indol-6-yl)phenyl)-3-(4-methyl-1H-imidazol-1-yl)-5-(trifluoromethyl)benzamide] |
| < 10 |  | Nc1cc(-n2ccc3ccc(-c4cccc(NC(=O)c5ccc(Br)s5)c4)cc32)ncn1 [Example 18, N-(3-(1-(6-aminopyrimidin-4-yl)-1H-indol-6-yl)phenyl)-5-bromothiophen-2-carboxamide] |
| < 10 |  | Nc1cc(-n2ccc3ccc(-c4cccc(NC(=O)Nc5ccc(Cl)c(Cl)c5)c4)cc32)ncn1 [Example 4, 1-(3-(1-(6-aminopyrimidin-4-yl)-1H-indol-6-yl)phenyl)-3-(3,4-dichlorophenyl)urea] |
| < 10 | < 10 | COc1ccccc1NC(=O)Nc1cccc(-c2ccc3ccn(-c4ncnc5[nH]ccc45)c3c2)c1 [Example 36, 1-(3-(1-(7H-pyrrolo[2,3-d]pyrimidin-4-yl)-1H-indol-6-yl)phenyl)-3-(2-methoxyphenyl)urea] |
| < 10 |  | Cc1cc(C(=O)Nc2cccc(-c3ccc4ccn(-c5cc(N)ncn5)c4c3)c2)c(C)o1 [Example 12, N-(3-(1-(6-aminopyrimidin-4-yl)-1H-indol-6-yl)phenyl)-2,5-dimethylfuran-3-carboxamide] |
| < 10 | < 10 | COc1ccccc1NC(=O)Nc1cccc(-c2ccc3ccn(-c4cc(NC5CC5)ncn4)c3c2)c1 [Example 23, 1-(3-(1-(6-(cyclopropylamino)pyrimidin-4-yl)-1H-indol-6-yl)phenyl)-3-(2-methoxyphenyl)urea] |
